Literature values, collected in US20110104282A1, “New Therapy of Treatment of the Irritable Bowel Syndrome” (Karolinska Institutet Innovations AB, priority 2008, published 2011).

Conditions: on occasion

For `N[C@@H](Cc1c[nH]c2ccccc12)C(=O)O` [tryptophan], the “adverse side effects of high doses” value is listed as “intestinal discomfort and nausea”.
